The record followed here is patent US11691989B2, “Macrocyclic indoles as Mcl-1 inhibitors” (ASCENTAGE PHARMA (SUZHOU) CO., LTD., priority 2018, dated 2023).

Bounds are passed on as bounds.

For series [1], the target named is Mcl-1 protein (residues 171-323) (Homo sapiens (Human), UniProt Q07820). In words: Inhibition of Mcl-1 by fluorescence polarization (FP) competitive binding assay with FAM-Bid tracer. The note with it: 2 nM FAM-Bid, 20 nM Mcl-1, 30 min, read-out: Mc1-1 (FP). The method, boiled down:
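Competitive FP binding of compounds against FAM-Bid tracer (final 2 nM) on Mcl-1 (final 20 nM) in PBS with 0.01% BGG and 0.01% Triton X-100, 5% final DMSO.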
Background: Fluorescence polarisation rises when a labelled molecule tumbles more slowly, as on binding a larger partner.

Series [2] concerns OPM-2 cells. In words: Cell viability assay (OPM-2 cells), CCK-8. It is filed as cell-based. The settings on record: 5% FBS. The procedure, abridged: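 OPM-2 myeloma cells (20000/well) incubated with serially diluted compound for 24 h at 37 °C, 5% CO2. Viability read by CCK-8 (4 h) absorbance at 450 nm, normalised to vehicle; IC50 from nonlinear regression.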
Series [3] relates to NCI-H929 cells. In words: Cell viability assay (NCI-H929 cells), CCK-8. The settings on record: 5% FBS. It is filed as cell-based. The procedure, abridged: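 NCI-H929 cells (20000/well) exposed to serially diluted compounds for 24 h at 37 °C, 5% CO2. Viability by CCK-8, absorbance at 450 nm after 1-4 h, normalized to vehicle-treated cells. IC50 by nonlinear regression.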
Series [4] is described as follows: Microsome clearance assay, mouse. Type of series: in vitro ADME. The note with it: 0.5 mg/ml protein, 1 mM NADPH, 60 minutes; for microsomal CLint at 5 μM: male, CD-1, mouse, pooled liver microsomes, pH 7.4, mouse liver microsomes, read-out: Mouse Liver Microsome Clint (μL/min/mg protein). The method, then:
(§1) Representative Compounds of the Disclosure were tested in a microsome clearance assay. Pooled liver microsomes (20 mg/ml) from human, male Wister rat, and male CD-1 mouse were obtained from BD Bioscience (Franklin Lakes, N.J. USA). Incubation reaction mixtures contained a final concentration of 0.1M sodium phosphate buffer (pH 7.4), 0.5 mg/ml microsomal protein, 5 μM of test sample and 1 mM NADPH in a total volume of 400 μl. The incubations were done for 60 minutes and 300 μl of the mixtures was transferred to 150 μl of ice cold methanol to terminate reactions. After vortexes for 3 minutes and centrifuged at 4000 rpm at 4° C. for 10 minutes, the clear supernatant was used directly for analysis. The samples were analyzed by Applied Biosystems API 3200 Q TRAP LC/MS/MS system using electrospray ionization mode.
(In general: Microsomes from liver hold many membrane-bound enzymes, among them those of drug oxidation.)

A short description of series [5]: Microsome clearance assay, rat. It is filed as in vitro ADME. The note with it: 0.5 mg/ml protein, 1 mM NADPH, 60 minutes; for microsomal CLint at 5 μM: male, Wister, rat, pooled liver microsomes, pH 7.4, rat liver microsomes, read-out: Rat Liver Microsome Clint (μL/min/mg protein). The method, then:
as §1

The nature of series [6]: Microsome clearance assay, human. It is filed as in vitro ADME. The settings on record: 0.5 mg/ml protein, 1 mM NADPH, 60 minutes; for microsomal CLint at 5 μM: human, pooled liver microsomes, pH 7.4, human liver microsomes, read-out: Human Liver Microsome Clint (μL/min/mg protein). The method, then: as §1

Chain of Mcl-1 protein (residues 171-323) (Q07820 171-323): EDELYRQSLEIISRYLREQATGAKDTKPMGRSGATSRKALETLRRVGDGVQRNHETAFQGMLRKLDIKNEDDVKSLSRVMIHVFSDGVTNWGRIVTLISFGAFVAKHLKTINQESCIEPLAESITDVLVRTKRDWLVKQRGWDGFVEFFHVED

Take `Cc1nn(C)c2c1-c1c(Cl)ccc3c1c(C)c(C(=O)O)n3CCCOc1cc(cc3cc(F)ccc13)SCc1cc(nn1C)CSC2` [Cpd. No. 28, (Z)-1^5-chloro-9^6-fluoro-1^3,2^1,2^3,6^1-tetramethyl-1^1H,2^1H,6^111-10-oxa-4,8-dithia-1(4,1)-indola-2(4,5),6(3,5)-dipyrazola-9(3,1)-naphthalenacyclotridecaphane-1^2-carboxylic acid]: the IC50 in series [1] came to 0.014 µM; in series [2] (Homo sapiens, OPM-2, 24 h), 0.066 µM; in series [3] (Homo sapiens, NCI-H929, 24 h), 0.047 µM. For the same compound, the microsomal CLint at 5 μM in series [4] came to 116 µL/min/mg; in series [5], 38.4 µL/min/mg; in series [6] it was 42.8 µL/min/mg.

For the compound `COCCN1Cc2cc(n(C)n2)CSc2cc(c3ccc(F)cc3c2)OCCCn2c(C(=O)O)c(C)c3c(c(Cl)ccc32)-c2c(nn3c2COCC3)C1` [Cpd. No. 50, (Z)-1^5-chloro-9^6-fluoro-4-(2-methoxyethyl)-1^3, 6^1-dim ethyl-2^6,2^7-dihydro-1^1H,2^4H,6^1H-10-oxa-8-thia-4-aza-2(3,2)-pyrazolo[5,1-c][1,4]oxazina-1 (4,1)-indola-6(3,5)-pyrazola-9(3,1)-naphthalenacyclotridecaphane-1^2-carboxylic acid], the IC50 in series [1] was 0.02 µM; in series [2] (Homo sapiens, OPM-2, 24 h), 1.64 µM; in series [3] (Homo sapiens, NCI-H929, 24 h) it was 0.226 µM. Also, the microsomal CLint at 5 μM in series [4] came out at 65.2 µL/min/mg; in series [5] it was 22.2 µL/min/mg; in series [6] it was 10.2 µL/min/mg.

On to `CC(=O)NCc1c(C(=O)O)n2c3ccc(Cl)c(c13)-c1c(nn(C)c1C)CSCc1cc(n(C)n1)CSc1cc(c3ccccc3c1)OCCC2` [Cpd. No. 12, (Z)-1^3-(acetamidomethyl)-1^5-chloro-2^1,2^5,6^1-trimethyl-1^1H,2^1H,6^1E-10-oxa-4,8-dithia-1(4,1)-indola-2(4,3),6(3,5)-dipyrazola-9(3,1)-naphthalenacyclotridecaphane-1^2-carboxylic acid], for which the IC50 in series [1] stood at 0.018 µM; in series [2] (Homo sapiens, OPM-2, 24 h), 9.86 µM; in series [3] (Homo sapiens, NCI-H929, 24 h), 0.273 µM. Moreover, the values for the microsomal CLint at 5 μM in series [4], in series [5] and in series [6] were 13.8 µL/min/mg, 30.6 µL/min/mg and 3.6 µL/min/mg, respectively.

Consider `Cc1c2c(nn1C)CSCc1cc(n(C)n1)CSc1cc(c3ccc(F)cc3c1)OCCCn1c(C(=O)O)c(C(F)(F)F)c3c-2c(Cl)ccc31` [Cpd. No. 24, (Z)-1^5-chloro-9^6-fluoro-2^1,2^5,6^1-trimethyl-1^3-(trifluoromethyl)-1^1H,2^1H,6^1H-10-oxa-4,8-dithia-1(4,1)-indola-2(4,3),6(3,5)-dipyrazola-9(3,1)-naphthalenacyclotridecaphane-1^2-carboxylic acid], for which the IC50 came out at 0.015 µM in series [1]; 5.42 µM in series [2] (Homo sapiens, OPM-2, 24 h); 3.04 µM in series [3] (Homo sapiens, NCI-H929, 24 h). In addition, the microsomal CLint at 5 μM was 28.8 µL/min/mg in series [4], 122 µL/min/mg in series [5] and 21.8 µL/min/mg in series [6].

Consider `Cc1c(C(=O)O)n2c3ccc(Cl)c(c13)-c1c(nn(C)c1C)CN(S(C)(=O)=O)Cc1cc(n(C)n1)CSc1cc(c3ccc(F)cc3c1)OCCC2` (atropisomer, axis not shown) [Cpd. No. 33, (R)-(Z)-1^5-chloro-9^6-fluoro-1^3,2^1,2^5, 6^1-tetramethyl-4-(methylsulfonyl)-1^1H,2^1H, 6′H-10-oxa-8-thia-4-aza-1(4,1)-indola-2(4,3),6(3,5)-dipyrazola-9(3,1)-naphthalenacyclotridecaphane-1^2-carboxylic acid], for which the IC50 in series [1] was determined as 0.005 µM; in series [2] (24 hours) it was 0.19 µM; in series [3] (24 hrs) it was 0.107 µM. In addition, the “Mouse Liver Microsome Clint (μL/min/mg protein)” value in series [4] (mouse liver microsomes, 5 μM) is recorded as 16.0 μL/min/mg protein. Also, the “Rat Liver Microsome Clint (μL/min/mg protein)” value in series [5] (rat liver microsomes, 5 μM) was determined as 8.6 μL/min/mg protein. Also, in series [6] (human liver microsomes, 5 μM), the “Human Liver Microsome Clint (μL/min/mg protein)” value was less than 2.8 μL/min/mg protein.

Turning to `Cc1c2c(nn1C)CSCc1cc(n(C)n1)CSc1cc(c3ccc(F)cc3c1)OCCCn1c(C(=O)O)c(CN(C)S(=O)(=O)C(F)(F)F)c3c-2c(Cl)ccc31` [Cpd. No. 23, (Z)-1^5-chloro-9^6-fluoro-2^1,2^5,6^1-trimethyl-1^3-(((1,1,1-trifluoro-N-methylmethyl)sulfonamido)methyl)-1^1H,2^1H,6^1H-10-oxa-4,8-dithia-1(4,1)-indola-2(4,3),6(3,5)-dipyrazola-9(3,1)-naphthalenacyclotridecaphane-1^2-carboxylic acid], the IC50 in series [1] came to 0.016 µM; in series [2] (Homo sapiens, OPM-2, 24 h), 1.87 µM; in series [3] (Homo sapiens, NCI-H929, 24 h), 1.07 µM. For the same compound, the microsomal CLint at 5 μM in series [4] came out at 52.4 µL/min/mg; in series [5] it was 30.4 µL/min/mg; in series [6], 48.2 µL/min/mg.

In the case of `Cc1c(C(=O)O)n2c3ccc(Cl)c(c13)-c1c(nn(C)c1C)CN(C(C)C)Cc1cc(n(C)n1)CSc1cc(c3ccc(F)cc3c1)OCCC2` [Cpd. No. 53, (Z)-1^5-chloro-9^6-fluoro-4-isopropyl-1^3,2^1,2^5,6^1-tetramethyl-1^1H,2^1H,6^1H-10-oxa-8-thia-4-aza-1(4,1)-indola-2(4,3),6(3,5)-dipyrazola-9(3,1)-naphthalenacyclotridecaphane-1^2-carboxylic acid], the IC50 in series [1] was 0.034 µM; in series [2] (Homo sapiens, OPM-2, 24 h), 1.71 µM; in series [3] (Homo sapiens, NCI-H929, 24 h) it was 0.222 µM. Moreover, the microsomal CLint at 5 μM in series [4] worked out at 59.2 µL/min/mg; in series [5], 30 µL/min/mg; in series [6], 18.6 µL/min/mg.

Turning to `Cc1c(C(=O)O)n2c3ccc(Cl)c(c13)-c1c(nn3c1COCC3)CN(S(=O)(=O)c1ccccc1)Cc1cc(n(C)n1)CSc1cc(c3ccc(F)cc3c1)OCCC2` [Cpd. No. 29, (Z)-1^5-chloro-9^6-fluoro-1^3, 6^1-di methyl-4-(phenylsulfonyl)-26,27-dihydro-1^1H,2^4H,6^1H-10-oxa-8-thia-4-aza-2(3,2)-pyrazolo[5,1-c][1,4]oxazina-1(4,1)-indola-6(3,5)-pyrazola-9(3,1)-naphthalenacyclotridecaphane-1^2-carboxylic acid], the IC50 stood at 0.035 µM in series [1]; 1.9 µM in series [2] (Homo sapiens, OPM-2, 24 h); 0.621 µM in series [3] (Homo sapiens, NCI-H929, 24 h). Moreover, the microsomal CLint at 5 μM in series [4] stood at 54.6 µL/min/mg; in series [5], 42 µL/min/mg; in series [6] it was 21.4 µL/min/mg.

With `Cc1c(C(=O)O)n2c3ccc(Cl)c(c13)-c1c(nn3c1COCC3)CN(S(=O)(=O)C1CC1)Cc1cc(n(C)n1)CSc1cc(c3ccc(F)cc3c1)OCCC2` [Cpd. No. 31, (Z)-1^5-chloro-4-(cyclopropylsulfonyl)-9^6-fluoro-1^3, 6^1-di methyl-2^6,2^7-dihydro-1^1H,2^4H,6^1H-10-oxa-8-thia-4-aza-2(3,2)-pyrazolo[5,1-c][1,4]oxazina-1(4,1)-indola-6(3,5)-pyrazola-9(3,1)-naphthalenacyclotridecaphane-1^2-carboxylic acid], the IC50 in series [1] came out at 0.016 µM; in series [2] (Homo sapiens, OPM-2, 24 h) it was 1.94 µM; in series [3] (Homo sapiens, NCI-H929, 24 h), 0.623 µM. The results for the microsomal CLint at 5 μM in series [4], in series [5] and in series [6] were 45.2 µL/min/mg, 33 µL/min/mg and 7.4 µL/min/mg, respectively.

As for `Cc1c(C(=O)O)n2c3ccc(Cl)c(c13)-c1c(nn(C)c1C)CN(S(=O)(=O)C(F)(F)F)Cc1cc(n(C)n1)CSc1cc(c3ccc(F)cc3c1)OCCC2` [Cpd. No. 35, (Z)-1^5-chloro-9^6-fluoro-1^3,2^1,2^5,6^1-tetramethyl-4-((trifluoromethyl)sulfonyl)-1^1H,2^1H,6^1H-10-oxa-8-thia-4-aza-1(4,1)-indola-2(4,3),6(3,5)-dipyrazola-9(3,1)-naphthalenacyclotridecaphane-1^2-carboxylic acid], the IC50 in series [1] worked out at 0.015 µM; in series [2] (Homo sapiens, OPM-2, 24 h), 0.057 µM; in series [3] (Homo sapiens, NCI-H929, 24 h), 0.025 µM. Also, the microsomal CLint at 5 μM amounted to 156 µL/min/mg in series [4], 42 µL/min/mg in series [5] and 53.2 µL/min/mg in series [6].
